# “Also recorded” adds a separate entry of the source. Where two headings read alike, the source gives them in different places.
# Test system: protease
# Type: biochemical, Aspergillus sp. MTCC 5102
SMILES,% inhibition,Residual specific activity (%),inhibition of the protease activity (in words),% inhibition (200 µM),Residual specific activity (%) (200 µM)
"O=C(O)CN(CCN(CC(=O)O)CC(=O)O)CC(=O)O [EDTA, ethylenediamine tetraacetic acid]",6%,94%,not inhibited; also recorded: no inhibition of activity,–,–
"[Cl][Hg][Cl] [HgCl2, mercuric chloride]",–,–,not inhibited,14%,86%
"O=S(=O)(F)Cc1ccccc1 [PMSF, phenylmethylsulfonyl fluoride]",100%,0%,totally inhibited; also recorded: inhibition of the activity,–,–
